The source of these data is US12338229B2, “Small molecule stimulators of steroid receptor coactivator-3 and methods of their use as cardioprotective and/or vascular regenerative agents” (BAYLOR COLLEGE OF MEDICINE, priority 2018, dated 2025).

Broadly, the AUC(0-inf) is the area under the concentration-time curve extrapolated to infinity. High values mean more exposure, low ones less exposure. A word on the AUC(0-t): it is the area under the concentration-time curve up to a stated or last time point. In general, Cmax refers to the maximum level reached in the sampled fluid or tissue. A word on the Tmax: it is the time from dosing to the highest level.

Structures are written as SMILES.

One data set relates to cardiac fibroblasts. As to the kind of experiment: Tube formation assay. To be noted: adult cardiac fibroblasts, 6 μM, 24 hours. The format is cell-based, mice. The protocol:
Tube formation assay. Cardiac fibroblasts were treated with either DMSO or 6 μM MCB-613. Twenty four hours post treatment, drug was washed off by rinsing the cells twice with PBS. The cells were then conditioned with endothelial cell growth media for 24 hours. Post conditioning, cells were plated on growth factor reduced matrigel (10 mg/ml) to allow for tube formation overnight. The next day tubes were stained with Calcein AM and imaged using the Cytation imaging system.

The subject of data set [1] is mice after myocardial infarction. As to the kind of experiment: Progressive maximal exercise test, indirect calorimetry (VO2, VCO2). As to conditions: three weeks post-MI. The format is in vivo. The protocol: RER, VO2 and VCO2 measurements. Respiratory exchange ratio (RER), oxygen consumption (VO^2) and carbon dioxide expiration (VCO2) were measured by indirect calorimetry using a progressive maximal exercise test until mice reached exhaustion.
RER, VO2 and VCO2 measurements. RER, VO2 and VCO2 were measured by indirect calorimetry using a progressive maximal exercise test until mice reached exhaustion.

A further data set deals with cardiac immune cells. The experiment in a line: Flow cytometry cardiac immune phenotyping post-MI. The format is in vivo, mice. As to conditions: 24 hours post-MI, vs control. As for the experimental part: Flow Cytometry and Cardiac Immune Phenotyping. Hearts and spleens isolated from control and MCB-613 treated mice 24 hours post-MI or post-sham surgery were digested in digestion buffer: 500 μL of DNAse I (10 mg/ml), 500 μl Collagenase II (50 mg/ml) into 4 ml (enough for approx. 12 spleens @ 1x) RPMI 1640. Cells were placed on a GentleMacs dissociator and run on “IMPC_step2” twice and incubated at 25° C. for 15 minutes. The “IMPC_step2” program was repeated and the samples were incubated at 25° C. an additional 15 minutes followed by another round of the “IMPC_step2” program. Then, 400 μL of 4° C. Stopping Buffer (1x PBS, 0.1M EDTA) was added to each sample and centrifuged at ˜100 g for one second to collect liquid at the bottom of tube. Samples were filtered through mesh filter caps into 50 mL conical tubes. The tubes were then washed with 1 mL FACs buffer which was also then passed through the filter. Heart preps were more viscous and were washed with 20 mL cold filtered saline. Samples were centrifuged at 500 g for 6 minutes. Supernatant was discarded and the pellet suspended in 1 mL 4° C. FACS buffer. Following red blood cell (RBC) lysis and blocking, single cell suspensions were stained with an immune cell panel and quantified using an LSR II flow cytometer. Then, 500,000 live events were counted for spleen controls and the entire tube of heart cells was recorded and analyzed.

For data set [2], the system named is non-cardiomyocyte cells of hearts post-MI. As to the kind of experiment: Single cell transcriptional profiling of non-cardiomyocytes post-MI. Type of data set: in vivo, mice. The protocol: Isolation of cardiac cells for single cell transcription profiling. Mice were placed under the surgical plane of anesthesia before cervical dislocation. The hearts were removed and cells were isolated by Langendorff retrograde perfusion of calcium-free pH 7.4 Tyrodes solution (130 mM NaCl, […], 0.5 mM MgCl, 0.33 mM NaH2PO4, 0.25 mm HEPES, 22 mM glucose) with collagenase, 1 mg/mL for 15 minutes. The hearts were then removed from the apparatus, and finely minced in the same Tyrodes buffer with 15 mg/mL bovine serum albumin (BSA) before trituration with a glass pipette. Cardiomyocytes were then pelleted by differential centrifugation, 300 RPM for 3 minutes. The supernatant containing the noncardiomyocyte population of cells was then filtered through a 70 micron filter and pelleted at 750 G, and resuspended in 1.1 mL 2% fetal bovine serum (FBS) in phosphate buffered saline (PBS). 0.1 mL was removed for the “no stain control” for fluorescence-activated cell sorting (FACS). The other 1 mL was incubated with 4 ug/mL Calcein Blue and 10 microM DyeCycle Ruby and incubated at 37° C. for 10 minutes. The cells were then spun down at 600G, and resuspended in 0.5 mL 2% FBS/PBS containing Sytox Green (30 nM). […] The cells were then pelleted and resuspended in 100 uL 0.4% FBS in PBS, counted, and then flowed through the 10×Genomics Chromium system for single cell transcriptomic profiling.
Isolation of cardiac cells. […] Then, 0.1 mL of the mixture was removed for the “no stain control” for fluorescence-activated cell sorting (FACS). […] The cells were then pelleted and resuspended in 100 μL 0.4% FBS in PBS, counted, and passed through the 10× Genomics Chromium system.
Single-cell RNA-sequencing. […] To identify cell clusters and differentially expressed genes, the Cell Ranger results were analyzed with Seurat suite version 3.0.0 implemented in R (version 3.4.3). Cells with <200 or >5,000 unique genes expressed or >25% of reads mapping to mitochondria were removed as quality control measure. […]

A short description of data set [3]: Pharmacokinetics in CD-1 mice (plasma, HPLC-MS/MS).
Protocol: Each of the three compounds was dissolved in DMSO (20 mg/mL), mixed with 30% hydroxypropyl-β-cyclodextrin at a 1:9 ratio, and administered to the CD-1 mice intraperitoneally (ip) or orally (po) through a gavage. After compound administration, blood samples (3 mice per compound) were collected at nine time points, i.e., at 5 minutes, 0.25 hours, 0.5 hours, 1 hour, 2 hours, 4 hours, 8 hours, 12 hours, and 24 hours, through the tail vein. Plasma was isolated from these blood samples and the compound plasma concentrations were determined by HPLC-MS/MS. Pharmacokinetic parameters were calculated using the program PKSolver, an add-in program for use in analyzing pharmacokinetic and pharmacodynamics data analysis, as described in Zhang et al., Computer Methods and Programs in Biomedicine, 99: 306-314 (2010).

Regarding `CCC1C/C(=C\c2cccnc2)C(=O)/C(=C/c2cccnc2)C1` (centres unmarked) [MCB-613], the tube formation entry in the data set on cardiac fibroblasts is “stimulated tube formation”. The “VCO2 and VO2 during exercise” value in data set [1] was “VCO2 and VO2 are elevated”. The “composition of cardiac immune cells (FACS)” value with cardiac immune cells is “significant decrease in B cells, a trend for decreased monocytes and no change in the fraction of granulocytes”. In addition, the endothelial cell growth result in data set [2] (10 weeks post-MI) is reported as “stimulates endothelial cell growth of two distinct endothelial cell populations”. Moreover, in data set [2] (12 weeks post-MI), the “changes in non-cardiomyocyte cell number” value is “macrophage cluster 1 and B lymphocytes decreased in number while epicardial cells, NK/T lymphocytes, fibroblasts, and endothelial cells, including lymphatic cells, were increased in cell number”; the “granulocyte functions (gene set enrichment)” value is listed as “suppresses inflammatory granulocyte functions”. In data set [3] (intraperitoneal), the AUC(0-inf) amounted to 129.6 ng·h/mL, the AUC(0-t) came to 122.2 ng·h/mL, the Cl is 6.4 (mg)/(ng/mL)/h and the Cmax was found to be 49.2 ng/mL. Besides, in data set [3] (intraperitoneal), the “Terminal phase t1/2” value amounted to 390 min, the Tmax was determined as 4.8 min and the t1/2 came to 51.6 min. Further, in data set [3] (oral (gavage)), the AUC(0-inf) was 24.3 ng·h/mL, the AUC(0-t) turned out to be 15.7 ng·h/mL, the Cl is recorded as 34 (mg)/(ng/mL)/h and the Cmax was determined as 5.6 ng/mL. Further, in data set [3] (oral (gavage)), the “Terminal phase t1/2” value was 966 min, the Tmax came out at 15 min and the t1/2 turned out to be 56.4 min.
